Measurements taken from publication PMC6736568, “Discovery of Novel Anti-cryptosporidial Activities From Natural Products by in vitro High-Throughput Phenotypic Screening” (Frontiers in Microbiology, 2019).
Read-outs that look alike come from different tables or passages of the source.

Columns and labels:
[1] = system: Cryptosporidium parvum; experiment: qRT-PCR assay of the growth of C. parvum in vitro in HCT-8 host cells (primary and secondary screening, EC50); format: cell-based; details: Cryptosporidium parvum, HCT-8; for inhibition at 10 µM: primary screening at 10 uM, read-out: Inhibition (%); for inhibition at 3.3 µM: secondary screening at 3.3 uM, read-out: % Inhibition (3.3 uM)
[2] = system: HCT-8 host cells (Hs18S)
[3] = in vitro; details: for cytotoxicity at 41 h, 10 µM: human
[4] = primary screening at 10 uM, treated vs control

Structure (SMILES)	inhibition at 10 µM [1] [%]	Hs18S ΔCT ([2]; human, 41 h, 10 μM)	cytotoxicity at 41 h, 10 µM [3] [%]	inhibition at 3.3 µM [1] [%]	Hs18S ΔCT [2, 4]	cytotoxicity at 10 µM [3] [%]	Hs18S ΔCT [2]
O=c1oc2c(O)c(O)cc3c(=O)oc4c(O)c(O)cc1c4c23 [ELLAGIC ACID]	-14.6	-0.05	-3.6	–	–	–	–
COc1cc(OC)c2c(=O)c(-c3ccc4c(c3)OCO4)coc2c1 [DERRUSTONE]	61.3	0.39	23.9	-77	–	–	–
COc1cc(CNC(=O)CCCC/C=C/C(C)C)ccc1O [CAPSAICIN]	-54.2	–	–	–	0.00	0.1	–
C#CCCCCCCCCCCCC(O)CC(O)COC(C)=O (stereo not drawn) [AVOCADYNE ACETATE]	15.8	0.19	12.2	–	–	–	–
CC(=O)[C@H]1CC[C@H]2[C@@H]3CC[C@H]4C[C@H](O)CC[C@]4(C)[C@H]3CC[C@]12C [ALLOPREGNANOLONE]	-52.5	–	–	–	0.02	1.3	–
C=C1CC[C@H](O)C/C1=C/C=C1\CCC[C@]2(C)[C@@H]([C@H](C)CCCC(C)C)CC[C@@H]12 [CHOLECALCIFEROL]	0.08	–	–	–	-0.21	-15.8	–
O=C(O)[C@H]1O[C@@H](Oc2cc3oc(-c4ccccc4)cc(=O)c3c(O)c2O)[C@H](O)[C@@H](O)[C@@H]1O [BAICALIN]	-13	–	-17.1	–	-0.23	–	–
Oc1cc(O)c2c(c1)O[C@H](c1ccc(O)c(O)c1)[C@H](O)C2 [EPICATECHIN]	-0.62	-0.09	-6.3	–	–	–	–
COc1cc(O)c2c(=O)c(OC)c(-c3ccc(OC)c(OC)c3)oc2c1 [RETUSIN]	33.2	–	–	–	0.27	17	–
C[C@H](CCC(=O)O)[C@H]1CC[C@H]2[C@@H]3CC[C@@H]4C[C@H](O)CC[C@]4(C)[C@H]3CC[C@]12C [LITHOCHOLIC ACID]	-55.8	0.65	36.1	–	–	–	–
O=C(O[C@@H]1Cc2c(O)cc(O)cc2O[C@@H]1c1cc(O)c(=O)c2c(O)c(O)cc([C@H]3Oc4cc(O)cc(O)c4C[C@H]3O)c2c1)c1cc(O)c(O)c(O)c1 [THEAFLAVIN MONOGALLATES]	25.6	-0.10	-7.4	–	–	–	–
O=c1c(O)c(-c2ccc(O)c(O)c2)oc2c(O)c(O)cc(O)c12 [GOSSYPETIN]	-17.5	–	–	–	-0.04	-2.6	–
COc1cc(OC)c2ccc(=O)oc2c1 [CITROPTEN]	-43.6	0.38	23.1	–	–	–	–
Cc1ccc(C(C)C)cc2c(C)ccc1-2 [GUAIAZULENE]	-38.2	-0.34	-27	–	–	–	–
OC[C@H]1O[C@@H](Oc2cc(O)cc(/C=C/c3ccc(O)cc3)c2)[C@H](O)[C@@H](O)[C@@H]1O [PICEID]	4.1	-0.36	-28.7	–	–	–	–
CC1=CC2C(CC1=O)C(C)=CCC2C(C)C (stereo not drawn) [MUUROLLADIE-3-ONE]	-7.55	-0.02	-1.7	–	–	–	–
CC[C@@]1(O)C[C@H](O)c2c(cc3c(c2O)C(=O)c2c(O)ccc(O)c2C3=O)[C@H]1C(=O)OC [RUTILANTINONE]	92	–	–	-3	-0.54	-45.2	–
O=C1C=CC(=O)c2c(O)cccc21 [JUGLONE]	-17.7	–	–	–	–	11.2	0.17
COC1=CC(=O)C(O)=C/C1=C\C=C\c1ccccc1 [OBTUSAQUINONE]	87.1	0.84	44.3	-92	–	–	–
Nc1nc2ncc(CNc3ccc(C(=O)N[C@@H](CCC(=O)O)C(=O)O)cc3)nc2c(=O)[nH]1 [FOLIC ACID]	3.63	0.02	1.3	–	–	–	–
CC(=O)OC1CCC23CC1(C)CCC2C(C)(C)CC3OC(C)=O (stereo not drawn) [CLOVANEDIOL DIACETATE]	-0.83	0.55	31.9	–	–	–	–
OCC(O)C(O)C(O)C(O)C(O)CO (stereo not drawn) [PERSEITOL]	11.3	-0.23	-17.1	–	–	–	–
COc1cc2c(cc1OC)C(=O)OC2 [METAMECONINE]	24.5	0.33	20.2	–	–	–	–
COc1ccc(-c2cc(=O)c3c(O)cc(OC)cc3o2)cc1 [APIGENIN DIMETHYL ETHER]	-37.8	–	–	–	0.17	11.3	–
COc1cc(C(=O)O)cc(OC)c1O [SYRINGIC ACID]	3.63	–	–	–	-0.26	-20	–
